# Source: patent publication US10682319B2, “Necrosis inhibitors” (National Institute of Biological Sciences, Beijing, priority 2014, dated 2020)
# Where two headings read alike, the source gives them in different places.
# How the values were obtained:
# [1] = tested on: HT-29 cells; test: Necrosis assay (TNF-α/Smac mimetic/z-VAD induced necrosis, cell viability by ATP level); type: cell-based
# Procedure, shortened: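 Necrosis induced by 20 ng/ml TNF-α, 100 nM Smac mimetic and […], with compound added concurrently for 24 h. Viability read as ATP luminescence (CellTiter-Glo), normalized to DMSO-treated cells; duplicates.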
# [2] = target: T1, Recombinant full-length RIPK1 protein with N-terminal GST-tag (hRIP1 kinase) (Homo sapiens, UniProt Q13546); test: Kinase assay of RIPK1 (ADP-Glo); type: biochemical; conditions: for IC50: RIPK1 161 nM, ATP 50 uM, MBP 20 uM, 90 min
# T1 construct: Recombinant full-length RIPK1 protein with N-terminal GST-tag; GST (N); purchased SignalChem R07-34G
# T1 sequence (Q13546 1-671): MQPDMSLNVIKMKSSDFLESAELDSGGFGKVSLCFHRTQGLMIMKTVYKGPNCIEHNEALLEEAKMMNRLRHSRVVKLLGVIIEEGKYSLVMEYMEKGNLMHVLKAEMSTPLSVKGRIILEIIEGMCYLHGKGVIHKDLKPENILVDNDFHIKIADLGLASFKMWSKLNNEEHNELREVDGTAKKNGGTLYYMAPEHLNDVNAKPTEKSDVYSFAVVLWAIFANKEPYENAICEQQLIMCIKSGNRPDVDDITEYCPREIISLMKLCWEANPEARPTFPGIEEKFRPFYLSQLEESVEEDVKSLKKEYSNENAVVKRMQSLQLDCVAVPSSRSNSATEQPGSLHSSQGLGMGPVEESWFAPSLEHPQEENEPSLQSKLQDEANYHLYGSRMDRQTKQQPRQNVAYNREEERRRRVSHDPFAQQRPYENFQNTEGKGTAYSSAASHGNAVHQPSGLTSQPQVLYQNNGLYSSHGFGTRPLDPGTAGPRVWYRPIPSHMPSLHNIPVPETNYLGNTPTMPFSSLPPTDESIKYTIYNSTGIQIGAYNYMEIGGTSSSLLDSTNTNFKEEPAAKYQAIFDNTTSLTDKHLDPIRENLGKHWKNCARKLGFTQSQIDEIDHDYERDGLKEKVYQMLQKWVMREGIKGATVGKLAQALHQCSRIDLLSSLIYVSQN
# Description: Recombinant full-length RIPK1 protein with N-terminal GST-tag (Cat # R07-34G) was purchased from SignalChem. The ADP-Glo™ kinase assay kit (Cat # V9102) was from Promega. MBP (cat # M2295) protein and all the other chemicals were from Sigma. The 384-well assay plates (Cat #3674, white, opaque) were purchased from Corning.
# Kinase activity assay and data analysis: The RIPK1 kinase assay was performed in white 384-well plate. The assay buffer contained 25 mM HEPES (pH7.2), 20 mM MgCl2, 12.5 mM MnCl2, 5 mM EGTA, 2 mM EDTA, 12.5 mM β-glycerol phosphate and 2 mM DTT. RIPK1 was first incubated with compounds or DMSO control for 15 min, then ATP/MBP substrate mixture was added to initiate the reaction. The final concentration of RIPK1 was 161 nM, while the final concentration of ATP was 50 uM, and MBP 20 uM. After 90 min reaction at room temperature, the ADP-Glo reagent and detection solution were added following the technical manual of ADP-Glo™ kinase assay kit (Promega). The luminescence was measured on PerkinElmer Enspire. The data was analyzed using Graphpad Prism (GraphPad Software; www.graphpad.com). The curves were fitted using a non-linear regression model with a sigmoidal dose response.
# [3] = HT-29, TNF-α + Smac mimetic + z-VAD, 24 hrs, ATP level, values given as ranges in nM, read-out: EC50 (inhibition of necrosis in HT-29 cells)
# [4] = Homo sapiens, HT-29, cell necrosis assay, exemplary data table, read-out: Cell viability assay, EC50
Compound,IC50 [2],inhibition at 2 µM ([2]; at 2uM compound),"EC50 [1, 3]","EC50 ([1]; Homo sapiens, HT-29, 24 h, HT-29, TNF-α + Smac mimetic + z-VAD, 24 hrs, ATP level, values given as ranges in uM, read-out: EC50 (inhibition of necrosis in HT-29 cells))","EC50 [1, 4]"
"CCC(C)(C)C(=O)N(C)Cc1cccc(F)c1 [Compound 16, N-(3-fluorobenzyl)-N,2,2-trimethylbutanamide]",52 nM,,1 to 1000 nM,,
"CCC(C)(C)C(=O)N(C)Cc1ccccc1Cl [Compound 14, N-(2-chlorobenzyl)-N,2,2-trimethylbutanamide]",,66%,,1000 to 10000 nM,3280 nM
"CCC(C)(C)C(=O)N(O)Cc1ccccc1 [Compound 92, N-benzyl-N-hydroxy-2,2-dimethylbutanamide]",13.2 nM,,1 to 1000 nM,,28.4 nM

# Further lines, with some results ahead:
IC50 [2],inhibition at 2 µM ([2]; at 2uM compound),Compound,"EC50 [1, 3]","EC50 ([1]; Homo sapiens, HT-29, 24 h, HT-29, TNF-α + Smac mimetic + z-VAD, 24 hrs, ATP level, values given as ranges in uM, read-out: EC50 (inhibition of necrosis in HT-29 cells))","EC50 [1, 4]"
33 nM,,"CCC(C)(C)C(=O)N(C)Cc1cc(F)cc(F)c1F [Compound 75, N,2,2-trimethyl-N-(2,3,5-trifluorobenzyl)butanamide]",1 to 1000 nM,,
29.6 nM,,"CCC(C)(C)C(=O)N(O)Cc1cc(F)c(F)c(F)c1 [Compound 99, N-hydroxy-2,2-dimethyl-N-(3,4,5-trifluorobenzyl)butanamide]",1 to 1000 nM,,45.7 nM
